Test results reported in the NIST ThermoML archive (doi:10.1021/acs.jced.8b01048).

Assay: xn = mol fraction of the nth substance listed
Conditions: 100 kPa, Liquid, Vibrating tube method

CC(=O)[O-].CCn1cc[n+](C)c1 [1-ethyl-3-methylimidazolium acetate] + C[S+](C)[O-]
mass density [kg/m3]
Conditions | 293.15 K | 303.15 K | 313.15 K | 323.15 K | 333.15 K | 343.15 K | 353.15 K | 363.15 K | 373.15 K
x2 = 0 | 1101.7 | 1095.6 | 1089.6 | 1083.7 | 1077.7 | 1071.8 | 1065.9 | 1060 | 1054.2
x2 = 0.053 | 1102.4 | 1096.3 | 1090.3 | 1084.2 | 1078.1 | 1072 | 1066.1 | 1060.1 | 1054.1
x2 = 0.103 | 1103 | 1096.9 | 1090.8 | 1084.5 | 1078.3 | 1072.2 | 1066.1 | 1060 | 1054
x2 = 0.196 | 1103.8 | 1097.5 | 1091.2 | 1084.8 | 1078.4 | 1072.2 | 1065.9 | 1059.8 | 1053.6
x2 = 0.301 | 1104.9 | 1098.4 | 1091.8 | 1085.2 | 1078.7 | 1072.1 | 1065.6 | 1059.3 | 1052.9
x2 = 0.401 | 1105.8 | 1099 | 1092.2 | 1085.3 | 1078.7 | 1071.8 | 1065.2 | 1058.4 | 1051.8
x2 = 0.501 | 1106.6 | 1099.5 | 1092.4 | 1085.4 | 1078.3 | 1071.3 | 1064.4 | 1057.5 | 1050.6
x2 = 0.6 | 1107.4 | 1099.9 | 1092.5 | 1085.1 | 1077.8 | 1070.4 | 1063.1 | 1055.8 | 1048.5
x2 = 0.686 | 1107.6 | 1099.9 | 1092 | 1084.3 | 1076.6 | 1068.9 | 1061.2 | 1053.6 | 1046
x2 = 0.802 | 1107.2 | 1098.8 | 1090.4 | 1082 | 1073.7 | 1065.4 | 1057.1 | 1048.8 | 1040.4
x2 = 0.899 | 1105.4 | 1096.3 | 1087.3 | 1078.3 | 1069.3 | 1060.3 | 1051.3 | 1042.3 | 1033.2
